From US20240010641A1, “N-Linked Glycosylation Inhibitors and Methods of Using Same” (YALE UNIVERSITY, priority 2020, published 2024)

Assays:
Assay type in all cases: cell-based
[1] = tested on: N-linked glycosylation in D54; assay: ER-LucT type AC50 determination in D54 cells (NGI-1 only); conditions: Homo sapiens
[2] = tested on: N-linked glycosylation (OST) in CHO-ER-LucT cells; assay: CHO-ER-LucT luminescence assay for inhibition of N-linked glycosylation; conditions: for Emax: 24 h, [compound's fold change-1.0 (DMSO)]/[NGI-1 fold change-1.0 (DMSO)]*100, read-out: Max activity (% NGI-1); for AC50: CHO-ER-LucT cells, 24 hrs exposure, seven-point dose dilution, luminescence
Procedure: The CHO-ER-LucT cells have been previously described (Contessa et al., 2010, Clinical Cancer Research, 16(12):3205-14) and are used for testing analog IC50 for inhibition of N-linked glycosylation in 96 or 384 well plate format. In these cells induction of luminescence is dependent on inhibition of glycosylation (and OST inhibition), and is determined after 24 hrs of exposure to the analog following the addition of luciferin substrate. The luminescent signal is then quantified using standard plate readers that detect luminescence (e.g., Biotek synergy). Experiments are performed over a seven-point dose dilution to generate dose response data and to identify IC50 values and maximal activity compared to controls. Data is transformed to log 10 values to generate a sigmoidal shaped dose response curve and fitted using nonlinear regression (curve fit) in GraphPad Prism7.
All HL compounds were tested in CHO-ER-LucT cells. IC50 (AC50) was estimated in following method: Concentration X is converted to logarithm (log10) to generate sigmoidal shape curve and dose response curve is generated using Nonlinear regression (curve fit) in Prism. EC50 (AC50) is calculated using log(agonist) vs response-(three parameters)] which uses standard Hill slope (=1).
Max activity: [compound's fold change−1.0 (DMSO)]/[NGI−1 fold change−1.0 (DMSO)]*100(%) (Eq. 1)

[3] = tested on: protein glycosylation in HEK293 cells; assay: Western blots of protein glycoforms after OST inhibitor treatment, HEK293 cells; conditions: 24 hrs, Western blot, FIG. 1
Procedure: FIG. 1 illustrates Western blots of protein glycoforms after OST inhibitor treatment in vitro. HEK293 cells were treated with each inhibitor for 24 hrs at indicated concentrations. Changes in glycosylation are shown by reduced molecular weight.
(§1) Inhibition of glycosylation is then confirmed by analysis of glycoprotein size using western blots. Increased gel mobility of proteins such as the EGFR or Halo3N indicate loss of protein glycosylation (FIGS. 1-2).

[4] = tested on: STT3A (HEK293 STT3B KO cells); assay: Western blots of protein glycoforms, HEK293 cells with knockout of STT3B; conditions: 24 hrs, Western blot, FIG. 2, indicating enhanced specificity for STT3A
Procedure: FIG. 2 illustrates Western blots of protein glycoforms after OST inhibitor treatment in vitro using HEK293 cells with knockout (KO) of either STT3A or STT3B. Cells were treated with each inhibitor for 24 hrs at indicated concentrations. Changes in glycosylation are shown by reduced molecular weight.
as §1

SMILES | AC50 [1] [nM] | Emax [2] [%] | AC50 [2] [nM] | Changes in glycosylation (reduced molecular weight of protein glycoforms) [3] | Effect on glycosylation in STT3B KO cells [4]
Cc1cnc(NC(=O)c2cc(S(=O)(=O)N(C)C)ccc2N2CCCC2)s1 [NGI-1, 5-(N,N-Dimethylsulfamoyl)-N-(5-methylthiazol-2-yl)-2-(pyrrolidin-1-yl)benzamide, reference compound] | 712 | 100 | 1110 |  | 
CCc1cnc(NC(=O)c2cc(S(=O)(=O)N3CCOCC3)ccc2N(C)CC2CC2)s1 [Example 3, 2-((cyclopropylmethyl)(methyl)amino)-N-(5-ethylthiazol-2-yl)-5-(morpholinosulfonyl)benzamide] |  | 215 | 59 | more potent effect | more potent effect
CCc1cnc(NC(=O)c2cc(S(=O)(=O)N3CCOCC3)cnc2N(C)CC2CC2)s1 [Example 26, 2-((cyclopropylmethyl)(methyl)amino)-N-(5-ethylthiazol-2-yl)-5-(morpholinosulfonyl)nicotinamide] |  | 104 | 851 |  | 
Cc1nc(NC(=O)c2cc(S(=O)(=O)N3CCOCC3)c(F)cc2N(C)CC2CC2)sc1C [Example 31, 2-((cyclopropylmethyl)(methyl)amino)-N-(4,5-dimethylthiazol-2-yl)-4-fluoro-5-(morpholinosulfonyl)benzamide] |  | 61.2 | 431 |  | 
CCc1cnc(NC(=O)c2cc(S(=O)(=O)N3CCOCC3)ccc2N(C)C2CCCC2)s1 [Example 4, 2-(cyclopentyl(methyl)amino)-N-(5-ethylthiazol-2-yl)-5-(morpholinosulfonyl)benzamide] |  | 206 | 87 | more potent effect | more potent effect
CCc1cnc(NC(=O)c2cc(S(=O)(=O)N(C)C)cnc2N(C)CC2CC2)s1 [Example 22, 2-((cyclopropylmethyl)(methyl)amino)-5-(N,N-dimethylsulfamoyl)-N-(5-ethylthiazol-2-yl)nicotinamide] |  | 126 | 572 |  | 
CCc1cnc(NC(=O)c2cc(S(=O)(=O)N(C)C)cnc2N(C)C2CCCC2)s1 [Example 25, 2-(cyclopentyl(methyl)amino)-5-(N,N-dimethylsulfamoyl)-N-(5-ethylthiazol-2-yl)nicotinamide] |  | 108 | 309 |  | 
Cc1nc(NC(=O)c2cc(S(=O)(=O)N3CCOCC3)ccc2N(C)C2CCCC2)sc1C [Example 9, 2-(cyclopentyl(methyl)amino)-N-(4,5-dimethylthiazol-2-yl)-5-(morpholinosulfonyl)benzamide] |  | 83.5 | 165 |  | 
Cc1nc(NC(=O)c2cc(S(=O)(=O)N3CCOCC3)ccc2N2CCC(F)(F)C2)sc1C [Example 38, 2-(3,3-difluoropyrrolidin-1-yl)-N-(4,5-dimethylthiazol-2-yl)-5-(morpholinosulfonyl)benzamide] |  | 42.8 | 748 |  | 
Cc1nc(NC(=O)c2cc(S(=O)(=O)N(C)C)c(F)cc2N2CCCC2)sc1C [Example 32, 5-(N,N-dimethylsulfamoyl)-N-(4,5-dimethylthiazol-2-yl)-4-fluoro-2-(pyrrolidin-1-yl)benzamide] |  | 52.6 | 3840 |  | 
CCc1cnc(NC(=O)c2cc(S(=O)(=O)N(C)Cc3ccccc3)ccc2N(C)CC2CC2)s1 [Example 18, 5-(N-benzyl-N-methylsulfamoyl)-2-((cyclopropylmethyl)(methyl)amino)-N-(5-ethylthiazol-2-yl)benzamide] |  | 71.2 | 266 |  | 
CCc1cnc(NC(=O)c2cc(S(=O)(=O)N3CCOCC3)ccc2N(C)C(C)C)s1 [Example 5, N-(5-ethylthiazol-2-yl)-2-(isopropyl(methyl)amino)-5-(morpholinosulfonyl)benzamide] |  | 162 | 270 |  | 
CCc1cnc(NC(=O)c2cc(S(=O)(=O)N(C)C)cc(F)c2N2CCCC2)s1 |  | 97.3 | 3760 |  | 
Cc1nc(NC(=O)c2cc(S(=O)(=O)N(C)C)cnc2N(C)CC2CC2)sc1C [Example 23, 2-((cyclopropylmethyl)(methyl)amino)-5-(N,N-dimethylsulfamoyl)-N-(4,5-dimethylthiazol-2-yl)nicotinamide] |  | 59 | 863 |  | 
Cc1ccc(NC(=O)c2cc(S(=O)(=O)N(C)C)ccc2N2CCC(F)(F)C2)cc1 [Example 33, 2-(3,3-difluoropyrrolidin-1-yl)-5-(N,N-dimethylsulfamoyl)-N-(p-tolyl)benzamide] |  | 67.5 | 5840 |  | 
Cc1nc(NC(=O)c2cc(S(=O)(=O)N(C)C)ccc2N(C)C2CCCC2)sc1C [Example 1, 2-(cyclopentyl(methyl)amino)-5-(N,N-dimethylsulfamoyl)-N-(4,5-dimethylthiazol-2-yl)benzamide] |  | 81 | 376 |  | 
Cc1cnc(NC(=O)c2cc(S(=O)(=O)N(C)C)cnc2N(C)CC2CC2)s1 |  | 48.3 | 3020 |  | 
Cc1nc(NC(=O)c2cc(S(=O)(=O)N3CCN(C)CC3)ccc2N(C)CC2CC2)sc1C |  | 76.9 | 2200 |  | 
